The values below come from ChEMBL document CHEMBL3244149, “New synthetic routes to tilorone dihydrochloride and some of its analogues” (J Med Chem, 1978).

Active and inactive are the calls of the source. The rule behind the calls is not given here.

In series [1] the test system is Mus musculus. The series can be described thus: Induction of interferon production in CD-1 mouse serum at 100 mg/kg, ip after 18 hrs. Details: dose 100 mg/kg. It counts as functional, organism-based.
Series [2] deals with Mus musculus. The series can be described thus: Toxicity in CD-1 mouse at 100 mg/kg, ip. It counts as organism-based. Set-up: dose 100 mg/kg, route intraperitoneal. Particulars: in vivo.
In series [3] the test system is Mus musculus. Kind of series: Toxicity in CD-1 mouse at 300 mg/kg, ip. Particulars: in vivo. In kind it is organism-based. Details: dose 300 mg/kg, route intraperitoneal.
Series [4] deals with Mus musculus. Kind of series: Induction of interferon production in CD-1 mouse serum at 10 to 30 mg/kg, ip after 18 hrs. In kind it is functional, organism-based.

As to `CCN(CC)CCOc1ccc2c(c1)C(=O)c1cc(OCCN(CC)CC)ccc1-2`, the result with Mus musculus [1] was Active.
As to `CCN(CC)CCOc1ccc2c(c1)S(=O)(=O)c1cc(OCCN(CC)CC)ccc1-2`, in the series on Mus musculus [1], the outcome was inactive. The figures for the Activity result in the series on Mus musculus [2] and in the series on Mus musculus [3] were “Non-toxic” and “Toxic”, respectively.
Turning to `CCN(CC)CCOc1cccc(C(=O)c2cccc(OCCN(CC)CC)c2)c1`, the result with Mus musculus [4] was inactive. For the same molecule, the Activity result with Mus musculus [2] and in the series on Mus musculus [3] was “Toxic” throughout.
